For one experiment, the target named is T1, Protein Tat (Human immunodeficiency virus type 1 group M subtype B (isolate HXB2)(HIV-1), UniProt P04608).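 Note: tat binding to TAR RNA read out by fluorescence polarization.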
T1 sequence (P04608 whole entry): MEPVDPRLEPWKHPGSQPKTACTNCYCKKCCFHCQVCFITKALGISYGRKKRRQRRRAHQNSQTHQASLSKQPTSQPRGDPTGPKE
The class given is functional.

Experiment [1] deals with T2, Adenosylmethionine-8-amino-7-oxononanoate aminotransferase (Mycobacterium tuberculosis, UniProt P9WQ81).
T2 sequence (P9WQ81 whole entry): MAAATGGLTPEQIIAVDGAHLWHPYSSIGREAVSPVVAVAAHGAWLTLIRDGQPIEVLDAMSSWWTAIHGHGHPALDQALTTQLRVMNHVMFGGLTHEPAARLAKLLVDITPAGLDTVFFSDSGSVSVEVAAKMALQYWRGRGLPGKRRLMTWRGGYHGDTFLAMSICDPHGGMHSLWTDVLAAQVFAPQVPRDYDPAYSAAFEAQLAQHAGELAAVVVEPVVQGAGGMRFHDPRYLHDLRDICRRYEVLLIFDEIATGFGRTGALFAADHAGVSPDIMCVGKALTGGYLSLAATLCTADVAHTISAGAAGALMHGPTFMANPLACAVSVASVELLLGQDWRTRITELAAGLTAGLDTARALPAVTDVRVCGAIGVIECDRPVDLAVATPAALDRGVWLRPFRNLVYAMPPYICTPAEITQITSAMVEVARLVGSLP
The experiment is described as follows: Mycobacterium tuberculosis BioA enzyme inhibitor Measured in Biochemical System Using Plate Reader - 2163-02_Inhibitor_Dose_CherryPick_Activity. The class given is functional, Mycobacterium tuberculosis UT205.

The nature of experiment [2]: NIH-3T3 fibroblast cytotoxicity, dose response, cytotoxicity control, cell-based, fluorescence, Alamar Blue, secondary assay (AID 2327).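 Note: NIH-3T3 mouse fibroblasts cultured with fluconazole at 8 µg/mL.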 The class given is functional.
The target in experiment [3] is T3, Corticotropin-releasing factor receptor 2/Corticotropin-releasing factor-binding protein (Homo sapiens, UniProt P24387+Q13324).
T3 sequence (Q13324 whole entry): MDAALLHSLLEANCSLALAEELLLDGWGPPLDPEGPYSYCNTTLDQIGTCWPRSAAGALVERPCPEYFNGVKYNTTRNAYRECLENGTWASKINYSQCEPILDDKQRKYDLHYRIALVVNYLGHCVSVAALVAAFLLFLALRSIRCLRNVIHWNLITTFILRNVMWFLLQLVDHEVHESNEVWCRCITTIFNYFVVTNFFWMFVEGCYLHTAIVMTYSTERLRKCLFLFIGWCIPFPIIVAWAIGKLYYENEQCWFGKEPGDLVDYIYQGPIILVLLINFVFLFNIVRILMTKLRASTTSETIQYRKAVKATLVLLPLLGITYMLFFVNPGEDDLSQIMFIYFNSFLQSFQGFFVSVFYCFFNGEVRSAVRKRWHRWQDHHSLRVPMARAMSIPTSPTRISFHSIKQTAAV
T3 sequence (P24387 whole entry): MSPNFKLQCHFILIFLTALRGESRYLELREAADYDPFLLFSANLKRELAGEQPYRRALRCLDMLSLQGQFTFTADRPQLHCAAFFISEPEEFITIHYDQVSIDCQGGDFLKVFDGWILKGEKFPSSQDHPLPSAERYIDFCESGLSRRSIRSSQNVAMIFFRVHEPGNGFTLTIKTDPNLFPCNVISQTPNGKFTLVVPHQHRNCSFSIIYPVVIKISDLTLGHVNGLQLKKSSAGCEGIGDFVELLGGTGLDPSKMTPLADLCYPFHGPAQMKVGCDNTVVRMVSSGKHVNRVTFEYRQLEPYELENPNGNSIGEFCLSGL
The experiment is described as follows: Dose Response confirmation of uHTS hits for small molecule antagonists of the CRF-binding protein and CRF-R2 receptor complex. The class given is functional. Particulars: read-out: IC50_Mean.

Experiment [4] has as its target T3, Corticotropin-releasing factor receptor 2/Corticotropin-releasing factor-binding protein. The experiment is described as follows: activators of CRF receptor 2 with binding protein – uHTS hits, confirmation (AID 602473). To be noted: read-out: EC50_Mean. The class given is functional.
A short description of experiment [5]: CRF-BP/CRF-R2 complex antagonists, dose response, cell-based, uHTS hits, 384-well (AID 651639). The experiment is classed as functional, Homo sapiens. Particulars: read-out: IC50_Mean.
Experiment [6] addresses SWI/SNF-related matrix-associated actin-dependent regulator of chromatin subfamily A member 2 (Homo sapiens, UniProt P51531). Nature of the experiment: Luminescence-based cell-based high throughput dose response assay to identify activators of the function of SWI/SNF related, matrix associated, actin dependent regulator of chromatin, subfamily a, member 2 (SMARCA2, BRM). The class given is functional.

Experiment [7] can be described thus: Counterscreen for activators of the function of SWI/SNF related, matrix associated, actin dependent regulator of chromatin, subfamily a, member 2 (SMARCA2, BRM): Luminescence-based cell-based high throughput dose response assay to identify non-selective compounds using the VP16 reporter assay. The class given is functional.
Experiment [8] has as its target T4, Fructose-bisphosphate aldolase (Mycobacterium tuberculosis, UniProt P9WQA3).
T4 sequence (P9WQA3 whole entry): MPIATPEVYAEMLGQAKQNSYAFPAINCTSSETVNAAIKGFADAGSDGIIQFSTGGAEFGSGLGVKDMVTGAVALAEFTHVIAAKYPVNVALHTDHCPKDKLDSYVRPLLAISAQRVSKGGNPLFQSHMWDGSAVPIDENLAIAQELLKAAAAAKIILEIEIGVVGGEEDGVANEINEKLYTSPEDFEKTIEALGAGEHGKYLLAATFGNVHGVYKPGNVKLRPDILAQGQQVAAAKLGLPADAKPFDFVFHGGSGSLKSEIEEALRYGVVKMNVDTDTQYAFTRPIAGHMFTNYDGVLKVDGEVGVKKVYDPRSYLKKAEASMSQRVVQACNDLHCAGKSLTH
Nature of the experiment: Fluorescence-based biochemical high throughput dose response assay for inhibitors of the fructose-bisphosphate aldolase (FBA) of M. tuberculosis. The class given is functional.

Experiment [9] is described as follows: Shn3 3'UTR reporter inhibitors, dose response, cell-based, Clone20 osteoblasts, firefly luciferase, cherry-picked (AID 624132).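 Note: firefly luciferase luminescence from reporter carrying the Shn3 3'UTR in osteoblasts.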 The class given is functional.
Experiment [10] is described as follows: control 3'UTR Renilla luciferase suppression, dose response, counter-screen for Shn3 inhibitor project, cell-based, Clone20-Shn3RL, cherry-picked (AID 624133). The class given is functional.
Another experiment deals with T5, Leucine aminopeptidase (Plasmodium falciparum 3D7, UniProt Q8IL11).
T5 sequence (Q8IL11 whole entry): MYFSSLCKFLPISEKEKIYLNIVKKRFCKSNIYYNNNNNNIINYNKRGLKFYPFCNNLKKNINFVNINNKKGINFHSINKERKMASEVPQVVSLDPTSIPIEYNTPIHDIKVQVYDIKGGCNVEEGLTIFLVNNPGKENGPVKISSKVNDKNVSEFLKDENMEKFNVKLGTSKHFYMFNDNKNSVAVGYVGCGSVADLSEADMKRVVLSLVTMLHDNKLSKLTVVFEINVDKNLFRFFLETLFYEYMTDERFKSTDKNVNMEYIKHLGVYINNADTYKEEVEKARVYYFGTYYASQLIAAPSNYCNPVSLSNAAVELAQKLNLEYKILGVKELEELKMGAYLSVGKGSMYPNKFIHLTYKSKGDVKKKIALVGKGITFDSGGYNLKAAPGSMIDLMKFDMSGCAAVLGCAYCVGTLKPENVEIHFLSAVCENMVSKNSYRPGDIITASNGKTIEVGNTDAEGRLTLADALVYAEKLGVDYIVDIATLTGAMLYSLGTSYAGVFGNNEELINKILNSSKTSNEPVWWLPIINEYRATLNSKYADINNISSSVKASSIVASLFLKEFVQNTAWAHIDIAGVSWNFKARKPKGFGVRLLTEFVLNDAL
The experiment is described as follows: P. falciparum M17LAP inhibitors, primary screen, biochemical, fluorogenic H-Leu-NHMec substrate, 1536-well (AID 1619). The experiment is classed as functional.

For experiment [11], the target named is Dual specificity tyrosine-phosphorylation-regulated kinase 1A (Rattus norvegicus, UniProt Q63470). The class given is biochemical, Homo sapiens.
Experiment [12] has as its target T6, Rac GTPase-activating protein 1 (Homo sapiens, UniProt Q9H0H5).
T6 sequence (Q9H0H5 whole entry): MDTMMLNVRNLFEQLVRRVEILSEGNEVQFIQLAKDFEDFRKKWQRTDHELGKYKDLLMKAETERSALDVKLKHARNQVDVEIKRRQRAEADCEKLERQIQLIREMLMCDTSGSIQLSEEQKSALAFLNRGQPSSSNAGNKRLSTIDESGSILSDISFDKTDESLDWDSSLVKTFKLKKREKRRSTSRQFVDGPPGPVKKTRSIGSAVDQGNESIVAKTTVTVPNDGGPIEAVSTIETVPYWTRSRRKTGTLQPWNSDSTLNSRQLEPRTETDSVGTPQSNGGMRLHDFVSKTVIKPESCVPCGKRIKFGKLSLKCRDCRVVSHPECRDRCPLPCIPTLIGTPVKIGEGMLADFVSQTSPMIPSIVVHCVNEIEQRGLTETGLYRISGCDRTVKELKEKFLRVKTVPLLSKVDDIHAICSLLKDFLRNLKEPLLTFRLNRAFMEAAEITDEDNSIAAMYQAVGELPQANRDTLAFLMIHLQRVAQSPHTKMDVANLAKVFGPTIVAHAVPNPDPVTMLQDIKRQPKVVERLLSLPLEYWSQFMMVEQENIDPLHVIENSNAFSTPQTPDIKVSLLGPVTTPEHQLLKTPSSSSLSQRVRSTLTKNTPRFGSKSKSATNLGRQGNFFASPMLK
The experiment is described as follows: MgcRacGAP GTPase-activating activity inhibitors, confirmation, biochemical, ADP Hunter fluorescence, primary and confirmatory (AID 624330). The experiment is classed as functional.

The target of experiment [13] is T7, Carboxy-terminal domain RNA polymerase II polypeptide A small phosphatase 1 (Homo sapiens, UniProt Q9GZU7).
T7 sequence (Q9GZU7 whole entry): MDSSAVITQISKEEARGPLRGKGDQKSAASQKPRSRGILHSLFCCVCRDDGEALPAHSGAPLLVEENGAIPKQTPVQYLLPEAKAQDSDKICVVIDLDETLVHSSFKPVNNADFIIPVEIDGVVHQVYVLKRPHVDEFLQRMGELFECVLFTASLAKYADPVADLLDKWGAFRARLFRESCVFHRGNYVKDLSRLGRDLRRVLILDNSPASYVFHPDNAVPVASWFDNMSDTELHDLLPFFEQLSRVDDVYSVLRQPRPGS
Nature of the experiment: inhibitors of CTDSP1, concentration-response testing, biochemical assay, absorbance-based, actives from ultra-high-throughput screening (AID 540297). The class given is functional.

For experiment [14], the target named is T8, Small ubiquitin-related modifier 1 (Homo sapiens, UniProt P63165). Nature of the experiment: inhibitors of SUMO1 peptide binding, dose response, biochemical, fluorescence polarization, uHTS hits (AID 624382). The experiment is classed as functional. Particulars: read-out: IC50_Mean.
T8 sequence (P63165 whole entry): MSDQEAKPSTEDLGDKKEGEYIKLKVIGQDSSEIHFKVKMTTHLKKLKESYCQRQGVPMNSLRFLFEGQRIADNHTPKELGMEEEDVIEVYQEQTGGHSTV
Experiment [15] has as its target T8, Small ubiquitin-related modifier 1. The experiment is described as follows: inhibitors of SUMO1 partner interactions, dose response, biochemical, FRET (AID 624383). The experiment is classed as functional. To be noted: read-out: IC50_Mean.

Activity calls are given as the source filed them.

Chain of SWI/SNF-related matrix-associated actin-dependent regulator of chromatin subfamily A member 2 (P51531 whole entry): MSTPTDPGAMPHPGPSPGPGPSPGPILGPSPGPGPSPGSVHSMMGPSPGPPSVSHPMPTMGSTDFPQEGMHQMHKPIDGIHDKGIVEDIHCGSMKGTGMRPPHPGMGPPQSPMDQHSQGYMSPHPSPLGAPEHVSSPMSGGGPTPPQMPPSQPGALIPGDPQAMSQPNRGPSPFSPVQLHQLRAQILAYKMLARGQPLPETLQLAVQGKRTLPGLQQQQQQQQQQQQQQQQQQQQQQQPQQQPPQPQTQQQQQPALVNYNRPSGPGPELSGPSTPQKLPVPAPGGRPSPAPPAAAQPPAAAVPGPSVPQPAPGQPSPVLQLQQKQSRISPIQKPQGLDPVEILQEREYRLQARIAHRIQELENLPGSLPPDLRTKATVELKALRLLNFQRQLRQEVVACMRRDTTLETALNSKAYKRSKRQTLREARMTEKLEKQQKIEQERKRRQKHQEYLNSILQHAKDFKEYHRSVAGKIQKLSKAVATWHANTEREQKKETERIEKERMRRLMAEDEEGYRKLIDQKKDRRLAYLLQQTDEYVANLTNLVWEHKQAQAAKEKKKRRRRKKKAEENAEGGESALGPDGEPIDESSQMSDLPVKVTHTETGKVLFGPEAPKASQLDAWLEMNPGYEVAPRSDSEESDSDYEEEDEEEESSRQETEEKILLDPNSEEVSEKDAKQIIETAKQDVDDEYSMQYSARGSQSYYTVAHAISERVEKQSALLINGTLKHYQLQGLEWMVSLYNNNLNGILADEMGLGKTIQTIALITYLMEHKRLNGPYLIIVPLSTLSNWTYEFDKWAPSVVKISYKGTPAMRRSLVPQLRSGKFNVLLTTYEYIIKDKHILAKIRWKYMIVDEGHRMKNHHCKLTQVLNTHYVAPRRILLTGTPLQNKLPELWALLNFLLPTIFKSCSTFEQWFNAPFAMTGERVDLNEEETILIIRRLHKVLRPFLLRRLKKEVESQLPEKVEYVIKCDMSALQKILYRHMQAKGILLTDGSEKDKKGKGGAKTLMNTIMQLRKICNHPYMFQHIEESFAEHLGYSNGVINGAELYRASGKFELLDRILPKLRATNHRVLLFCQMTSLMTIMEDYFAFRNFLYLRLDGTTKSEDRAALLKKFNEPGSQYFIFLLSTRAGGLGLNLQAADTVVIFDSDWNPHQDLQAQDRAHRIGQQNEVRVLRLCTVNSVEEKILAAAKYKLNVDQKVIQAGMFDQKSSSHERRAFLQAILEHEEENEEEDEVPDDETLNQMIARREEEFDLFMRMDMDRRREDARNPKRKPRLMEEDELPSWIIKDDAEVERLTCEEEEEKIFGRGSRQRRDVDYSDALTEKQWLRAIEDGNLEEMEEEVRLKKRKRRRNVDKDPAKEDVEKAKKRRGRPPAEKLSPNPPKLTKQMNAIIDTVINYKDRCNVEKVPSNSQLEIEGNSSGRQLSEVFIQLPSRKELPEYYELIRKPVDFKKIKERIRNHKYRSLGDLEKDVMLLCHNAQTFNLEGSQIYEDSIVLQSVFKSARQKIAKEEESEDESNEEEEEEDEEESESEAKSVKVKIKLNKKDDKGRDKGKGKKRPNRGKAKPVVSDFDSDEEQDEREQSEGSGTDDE

For the molecule `COCCNC(=O)c1ccc(CS(=O)(=O)c2c(Cl)cccc2Cl)o1`, the IC50 on Protein Tat was > 100 µM (active).

Turning to `Cc1c(C(N)=O)sc(N)c1C(=O)OC(C)C`, the AC50 in experiment [1] is 3.06 µM (active).

Regarding `CC(=O)c1ccc(NC(=O)C2CC(=O)N(Cc3ccccc3)C2)cc1` (stereo not drawn), the AC50 in experiment [1] is 5.19 µM (active).

With `O=C(O)c1cnc(-c2ccccc2)nc1Sc1ccc(Cl)cc1`, the EC50 in experiment [2] is 98.3 µM (inconclusive); in experiment [4] it was > 53 µM (inactive). The IC50 in [3] was 16.8 µM (active); in experiment [5] it was > 20 µM (inactive).

As for `CCN(CC)C(=O)CSc1nnc(-c2cccc(OC)c2)o1`, the EC50 in experiment [6] and in experiment [7] was > 91.1 µM (inactive) in each case.

For the molecule `Cc1cc(C)nc(SCc2nc3ncccn3c2Br)n1`, in experiment [8], the IC50 was 1.47 µM (active).

As for `CS(=O)(=O)c1ccc(C(=O)OCC(=O)N2CCOCC2)cc1[N+](=O)[O-]`, the AC50 was 17.5 µM (active) in experiment [9] and 27.9 µM (active) in experiment [10]. In addition, the EC50 in experiment [6] and in experiment [7] was > 91.2 µM (inactive) each time.

As to `COc1cccc(CNC(=O)c2ccc(NC(=O)C3=CSCCO3)cc2)c1`, the AC50 in [1] is 3.61 µM (active).

Consider `O=C(c1ccc(=O)oc1)N1CCCc2ccccc21`, for which, on Protein Tat, the IC50 was 5.02 µM (inconclusive).

Turning to `O=C(O)COc1ccc(/C=C/c2ccc3cccc([N+](=O)[O-])c3n2)cc1`, on Leucine aminopeptidase, the IC50 is 23.2 µM (active). Moreover, in experiment [11], the AC50 was 6.6 µM (active).

With `COc1ccc(C(=O)NC(Oc2ccccc2)C(Cl)(Cl)Cl)cc1` (stereo not drawn), the IC50 in [3] was 5.81 µM (active); in experiment [5], 14.5 µM (active). The EC50 in experiment [4] is > 53 µM (inactive).

As to `O=C(Nc1ccc(O)cc1)c1cccc(Oc2ccc([N+](=O)[O-])cc2)c1`, the results for the IC50 in experiment [3], in experiment [5] and in [12] were 25.9 µM (active), > 20 µM (inactive) and 41.8 µM (active), respectively. Further, the EC50 in experiment [4] is > 53 µM (inactive).

For the molecule `CC(=O)c1ccc(NC(=O)c2cccc(N3C(=O)c4ccccc4C3=O)c2)cc1`, the figures for the IC50 in experiment [13], in experiment [14] and in experiment [15] were 9.44 µM (active), > 66.6 µM (inactive) and 3.13 µM (active), respectively.

On to `N=c1c(C(=O)NC2CCCCC2)cc2c(=O)n3ccccc3nc2n1Cc1ccco1`, for which the IC50 in experiment [8] is 3.71 µM (active).

Consider `CC(=O)c1ccc(-c2cnc3c(NC=O)cc(-c4ccc(N5CCN(C)CC5)cc4)cn23)cc1`, for which the EC50 in experiment [6] is 56 µM (inactive); in [7] it was > 91.2 µM (inactive).

`C/C=C/c1ccc2c(c1)O[C@@H](CN(C)C(=O)c1ccc3c(c1)OCO3)[C@@H](C)CN([C@@H](C)CO)S2(=O)=O`: the AC50 in experiment [1] is 5.33 µM (active).

For `CC1(C(=O)Nc2ccccc2)Cc2c(-c3ccc4c(c3)OCO4)ccnc2O1` (stereo not drawn), the IC50 in [8] is 2.52 µM (active).

The record behind these values is ChEMBL document CHEMBL1201862, “PubChem BioAssay data set” (2004).
